Measured values taken from patent US7306923B2, “Methods for identification, and compounds useful for the treatment of degenerative & inflammatory diseases” (Galapagos N.V., priority 2004, dated 2007).

Legend:
[1] = tested on: MMP1 expression by synovial fibroblasts; experiment: Inhibition of the response of SFs to supernatant of TNFα-triggered THP1 cells, MMP1 ELISA; format: cell-based, human; settings: dexamethasone 100 nM, SB203580 5 μM, added 1 h before trigger with 2-fold diluted SN of TNFα-activated THP1 cells, 72 h
Procedure: A 384-well format ELISA for measurement of MMP1 is developed. Various primary antibodies are tested, as well as various ELISA protocols. The following protocol is developed and validated to measure MMP1 levels in SF supernatant in 384 well plates: white Lumitrac 600 384 well plates (Greiner) are coated with 2 μg/ml anti-MMP1 antibody MAB1346 (Chemicon). The antibody is diluted in buffer 40 (1.21 g Tris base (Sigma), 0.58 g NaCl (Calbiochem) and 5 ml 10% NaN3 (Sigma) in 1 L milliQ water and adjusted to pH 8.5). After overnight incubation at 4° C., plates are washed with PBS (80 g NaCl, 2 g KCl (Sigma), 11.5 g Na2HPO4.7H2O and 2 g KH2PO4 in 10 L milliQ; pH 7.4) and blocked with 100 μl/well Casein buffer (2% Casein (VWR International) in PBS). Next day, casein buffer is removed from ELISA plates and replaced by 50 μl/well EC buffer (4 g casein, 2.13 g Na2HPO4 (Sigma), 2 g bovine albumin (Sigma), 0.69 g NaH2PO4.H2O (Sigma), 0.5 g CHAPS (Roche), 23.3 g NaCl, 4 ml 0,5 M EDTA pH 8 (Invitrogen), 5 ml 10% NaN3 in 1 L milliQ and adjusted to pH 7.0). 0.25 mM DTT (Sigma) is added to the thawed samples plates. After removal of the EC buffer, 20 μl of sample is transferred to the ELISA plates. […] Readout is performed on the Luminoscan Ascent Luminometer (Labsystems) with an integration time of 200 msec or with an Envision reader (Perkin Elmer). […]

[2] = tested on: MMP1 expression by synovial fibroblasts; experiment: MMP1 ELISA on SFs triggered with cytokines or supernatant of cytokine-treated THP1 cells; format: cell-based, human; settings: each cytokine 25 ng/ml or THP1 supernatant 2-fold diluted, 72 h, 96 well plates
Procedure: A 384-well format ELISA for measurement of MMP1 is developed. Various primary antibodies are tested, as well as various ELISA protocols. The following protocol is developed and validated to measure MMP1 levels in SF supernatant in 384 well plates: white Lumitrac 600 384 well plates (Greiner) are coated with 2 μg/ml anti-MMP1 antibody MAB1346 (Chemicon). The antibody is diluted in buffer 40 (1.21 g Tris base (Sigma), 0.58 g NaCl (Calbiochem) and 5 ml 10% NaN3 (Sigma) in 1 L milliQ water and adjusted to pH 8.5). After overnight incubation at 4° C., plates are washed with PBS (80 g NaCl, 2 g KCl (Sigma), 11.5 g Na2HPO4.7H2O and 2 g KH2PO4 in 10 L milliQ; pH 7.4) and blocked with 100 μl/well Casein buffer (2% Casein (VWR International) in PBS). Next day, casein buffer is removed from ELISA plates and replaced by 50 μl/well EC buffer (4 g casein, 2.13 g Na2HPO4 (Sigma), 2 g bovine albumin (Sigma), 0.69 g NaH2PO4.H2O (Sigma), 0.5 g CHAPS (Roche), 23.3 g NaCl, 4 ml 0,5 M EDTA pH 8 (Invitrogen), 5 ml 10% NaN3 in 1 L milliQ and adjusted to pH 7.0). […] Readout is performed on the Luminoscan Ascent Luminometer (Labsystems) with an integration time of 200 msec or with an Envision reader (Perkin Elmer).
The increase of MMP1 expression by SFs upon treatment with cytokines relevant in the field of RA (TNFα, IL1β and OSM) or a combination thereof is monitored. […]

Compound	MMP1 levels lower than control levels [1]	increase (induction) of MMP1 expression by SFs [2]
C[S+]([O-])c1ccc(-c2nc(-c3ccncc3)c(-c3ccc(F)cc3)[nH]2)cc1 (stereo not drawn) [SB203580]	3 fold	–
C[C@@H]1C[C@H]2[C@@H]3CCC4=CC(=O)C=C[C@]4(C)[C@@]3(F)[C@@H](O)C[C@]2(C)[C@@]1(O)C(=O)CO [dexamethasone]	4 fold	–
TNFα	–	~3 fold
